From PubChem BioAssay AID2060497 (Molecular Pharmacology Branch, DTP, NCI, 2025)

Tested on: 317291-083-R-J1-PDC complex spheroids, viability
Experiment: Anticancer human tumor 317291-083-R-J1-PDC patient-derived soft tissue sarcoma cell line growth inhibition [GQUAD]
Details: for IC50: curve of first compound; for viability, T/C: stronger effect = lower value; active = viability on the fitted dose curve at most 10% of control; inactive = the rest
Method in brief: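 Tumor cells were grown as complex spheroids with HUVEC endothelial cells and mesenchymal stem cells as stroma. G-quadruplex stabilizers were combined with targeted agents over half-log dilutions from near the clinical Cmax, or from 10 microM.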

[1] = second compound 0.0316 µM, first compound 0.000999 µM
[2] = second compound 0.0316 µM, first compound 0.00316 µM
[3] = second compound 0.0316 µM, first compound 0.00999 µM
[4] = second compound 0.0316 µM, first compound 0.0316 µM
[5] = second compound 0.0316 µM, first compound 0.0999 µM
[6] = second compound 0.0316 µM, first compound 0.316 µM
[7] = second compound 0.1 µM, first compound 0.000999 µM
[8] = second compound 0.1 µM, first compound 0.00316 µM
[9] = second compound 0.1 µM, first compound 0.00999 µM
[10] = second compound 0.1 µM, first compound 0.0316 µM
[11] = second compound 0.1 µM, first compound 0.0999 µM
[12] = second compound 0.1 µM, first compound 0.316 µM
[13] = second compound 0.316 µM, first compound 0.000999 µM
[14] = second compound 0.316 µM, first compound 0.00316 µM
[15] = second compound 0.316 µM, first compound 0.00999 µM
[16] = second compound 0.316 µM, first compound 0.0316 µM
[17] = second compound 0.316 µM, first compound 0.0999 µM
[18] = second compound 0.316 µM, first compound 0.316 µM
[19] = second compound 1 µM, first compound 0.000999 µM
[20] = second compound 1 µM, first compound 0.00316 µM
[21] = second compound 1 µM, first compound 0.00999 µM
[22] = second compound 1 µM, first compound 0.0316 µM
[23] = second compound 1 µM, first compound 0.0999 µM
[24] = second compound 1 µM, first compound 0.316 µM
[25] = second compound 3.16 µM, first compound 0.000999 µM
[26] = second compound 3.16 µM, first compound 0.00316 µM
[27] = second compound 3.16 µM, first compound 0.00999 µM
[28] = second compound 3.16 µM, first compound 0.0316 µM
[29] = second compound 3.16 µM, first compound 0.0999 µM
[30] = second compound 3.16 µM, first compound 0.316 µM
[31] = second compound 10 µM, first compound 0.000999 µM
[32] = second compound 10 µM, first compound 0.00316 µM
[33] = second compound 10 µM, first compound 0.00999 µM
[34] = second compound 10 µM, first compound 0.0316 µM
[35] = second compound 10 µM, first compound 0.0999 µM
[36] = second compound 10 µM, first compound 0.316 µM
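Note: spheroids exposed to compounds for one week before readout.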
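Throughout, for viability, T/C: percent viability relative to DMSO vehicle wells taken as 100%.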

Cn1ncnc1[C@H]1c2n[nH]c(=O)c3cc(F)cc(c23)N[C@@H]1c1ccc(F)cc1 + CN(C)c1ccc(Nc2c3ccc(NC(=O)CCN4CCCC4)cc3nc3cc(NC(=O)CCN4CCCC4)ccc23)cc1
0.205 µM: IC50 (second compound 0.316 µM)
active: viability, T/C [31] 9.05% | viability, T/C [32] 13.8% | viability, T/C [33] 8.55% | viability, T/C [34] 12.2% | viability, T/C [35] 5.71% | viability, T/C [36] 8.04%
< 0.000999 µM: IC50 (second compound 3.16 µM) | IC50 (second compound 10 µM)
0.0149 µM: IC50 (second compound 1 µM)
inactive: viability, T/C [1] 112% | viability, T/C [2] 94% | viability, T/C [3] 85% | viability, T/C [4] 74.7% | viability, T/C [5] 67.4% | viability, T/C [6] 66.6% | viability, T/C [7] 115% | viability, T/C [8] 87.6% | viability, T/C [9] 90.3% | viability, T/C [10] 87.6% | viability, T/C [11] 81.9% | viability, T/C [12] 65.3% | viability, T/C [13] 68.9% | viability, T/C [14] 79.3% | viability, T/C [15] 72.8% | viability, T/C [16] 61.9% | viability, T/C [17] 60.5% | viability, T/C [18] 44.6% | viability, T/C [19] 54.3% | viability, T/C [20] 49.3% | viability, T/C [21] 62.1% | viability, T/C [22] 34.1% | viability, T/C [23] 38.2% | viability, T/C [24] 47.9% | viability, T/C [25] 35.7% | viability, T/C [26] 24% | viability, T/C [27] 24.9% | viability, T/C [28] 18.5% | viability, T/C [29] 28.6% | viability, T/C [30] 17.7%
> 0.316 µM: IC50 (second compound 0.0316 µM) | IC50 (second compound 0.1 µM)

Cn1ncnc1[C@H]1c2n[nH]c(=O)c3cc(F)cc(c23)N[C@@H]1c1ccc(F)cc1 + Cc1[nH]c2ccc(F)cc2c1-c1nc2c3cccnc3c3ncccc3c2[nH]1
inactive: viability, T/C [1] 104% | viability, T/C [2] 101% | viability, T/C [3] 120% | viability, T/C [4] 87.8% | viability, T/C [5] 92% | viability, T/C [6] 77.2% | viability, T/C [7] 119% | viability, T/C [8] 99.2% | viability, T/C [9] 113% | viability, T/C [10] 112% | viability, T/C [11] 91.6% | viability, T/C [12] 64.7% | viability, T/C [13] 112% | viability, T/C [14] 114% | viability, T/C [15] 97.7% | viability, T/C [16] 94.3% | viability, T/C [17] 108% | viability, T/C [18] 91.1% | viability, T/C [19] 120% | viability, T/C [20] 113% | viability, T/C [21] 89.5% | viability, T/C [22] 89.3% | viability, T/C [23] 91.1% | viability, T/C [24] 72.3% | viability, T/C [25] 106% | viability, T/C [26] 99.7% | viability, T/C [27] 96.7% | viability, T/C [28] 73.4% | viability, T/C [29] 75.3% | viability, T/C [30] 57.1% | viability, T/C [31] 96.1% | viability, T/C [32] 100% | viability, T/C [33] 102% | viability, T/C [34] 75.4% | viability, T/C [35] 86% | viability, T/C [36] 68.7%
> 0.316 µM: IC50 (second compound 0.0316 µM) | IC50 (second compound 0.1 µM) | IC50 (second compound 0.316 µM) | IC50 (second compound 1 µM) | IC50 (second compound 3.16 µM) | IC50 (second compound 10 µM)
